Data: a compilation of properties of binary mixtures (doi:10.1016/j.molliq.2013.10.014)

Experiment: xn = mol fraction of the nth substance listed
Settings: 100 kPa

c1ccsc1 + CCCC[n+]1ccn(C)c1.O=S(=O)([N-]S(=O)(=O)C(F)(F)F)C(F)(F)F
viscosity [mPa·s]
Settings	x1 = 0.089	x1 = 0.276	x1 = 0.336	x1 = 0.561	x1 = 0.77	x1 = 1
298.15 K	42.6	26.6	23.2	–	6.86	–
308.15 K	–	–	16.58	10.95	5.35	0.585
318.15 K	20.8	13.9	12.37	8.45	4.29	0.525
328.15 K	15.53	10.66	9.54	6.72	3.52	0.47

c1ccccc1 + CCCC[n+]1ccn(C)c1.O=S(=O)([O-])C(F)(F)F
x1 = 1
Settings	viscosity [mPa·s]
298.15 K	0.605
328.15 K	0.363

c1ccccc1 + CC[n+]1ccn(C)c1.O=S(=O)([N-]S(=O)(=O)C(F)(F)F)C(F)(F)F
x1 = 1
Settings	viscosity [mPa·s]
298.15 K	0.605
308.15 K	0.527
318.15 K	0.466
328.15 K	0.363

CCCC[n+]1ccn(C)c1.O=S(=O)([O-])C(F)(F)F + c1ccccc1
viscosity [mPa·s]
Settings	x2 = 0	x2 = 0.122	x2 = 0.304	x2 = 0.353	x2 = 0.467	x2 = 0.573
298.15 K	–	–	37.2	32.8	19.8	–
308.15 K	56.4	–	–	22.6	14.22	9.37
318.15 K	38.3	29.2	18.23	16.33	–	–
328.15 K	27.3	21.2	–	12.3	–	5.71

CC[n+]1ccn(C)c1.O=S(=O)([N-]S(=O)(=O)C(F)(F)F)C(F)(F)F + c1ccccc1
viscosity [mPa·s]
Settings	x2 = 0	x2 = 0.135	x2 = 0.339	x2 = 0.471	x2 = 0.492
298.15 K	33	–	–	11.41	10.4
308.15 K	23.7	18.44	11.75	8.65	7.98
318.15 K	17.69	14.02	9.11	–	6.31
328.15 K	–	10.93	–	5.5	5.16

CCCC[n+]1ccn(C)c1.O=S(=O)([N-]S(=O)(=O)C(F)(F)F)C(F)(F)F + c1ccsc1
x2 = 0
Settings	viscosity [mPa·s]
298.15 K	51.32
308.15 K	34.4
318.15 K	24.4
